In US7981875B2, “2″ oxo-voruscharin and derivatives thereof” (priority 2002, dated 2011):
pIC50: −log10 of the molar value.

What was measured:
A549 = assay: MTT test, overall cell growth; format: cell-based, human; details: 72 hours of incubation
Experimental: (§1) In order to characterize the in vitro activities of the compounds according to the invention, MTT tests were carried out. The MTT test, which is a well-known test in the art, is an indirect technique that rapidly measures, i.e. within 5 days, the effect of a given product on the overall cell growth. This test measures the number of metabolically active living cells that are able to transform the MTT product (3-(4,5-dimethylthiazol-2-yl)-2,5 diphenyl tetrazolium bromide), having a yellowish color, to the blue product formazan dye by mitochondrial reduction. The amount of formazan obtained at the end of the experiment is measured with a spectrophotometer and is directly proportional to the number of living cells. Determination of the optical density enables a quantitative measurement of the effect of the investigated compounds as compared to the control condition (untreated cells) and to compare it to other reference compound. In the following examples different compounds according to the invention were tested and compared to the reference compound being uscharin.
(§2) Six human cancer cell lines, described in Table C, were tested in the presence of compounds according to the invention. These cell lines covered four histological cancer types, being Glioma, colon, lung and bladder cancer. The cells were allowed to grow in 96-well micro wells with a flat bottom with an amount of 100 μl of cell suspension per well in reason to 4000 cells/well depending on cell type. Each cell line was seeded in its own cell culture medium (Table C).
(§3) After a 24-hour period of incubation at 37° C., the culture medium is replaced by 100 μl of fresh medium in which the compound to be tested has been dissolved at different required concentrations. Different compounds were tested at 10^−9 M, 5×10^−9 M, 10^−8 M, 5×10^−8 M, 10^−7 M, 5×10^−7 M, 10^−6 M, 5×10^−6 M et 10^−5 M. Each experimental condition is carried out in hexaplicate. The compounds tested are 2″ oxo-voruscharin, and compounds B, C, D, E, H and I represented in Table B above.
(§4) After 72 hours of incubation at 37° C. with the compound (experimental conditions) or without the compound (control condition), the medium was replaced by 100 μl MTT at the concentration of 1 mg/ml dissolved in RPMI. The micro wells were subsequently incubated during 3 hours at 37° C. and centrifuged at 400 g during 10 minutes. The MTT was removed and formazan crystals formed, were dissolved in 100 μl DMSO. The micro wells were shaken for 5 minutes and read on a spectrophotometer at the wavelengths of 570 nm corresponding to the maximum formazan absorbance wavelength, and of 630 nm, which is the background noise wavelength.
(§5) For each experimental condition, the mean OD associated with the SEM (standard error of the mean) for each condition (6 wells) was calculated. The percentage of remaining living cells in comparison with the control was calculated. Results of these experiments are represented in FIGS. 2 to 8.

HCT-15 = assay: MTT test, overall cell growth; format: cell-based, human; details: HCT-15, MTT, 72 hours of incubation; read-out: IC50 value
Experimental: as §1, §2, §3, §4, §5

Hs683 = assay: MTT test, overall cell growth; format: cell-based, human; details: Hs683, MTT, 72 hours of incubation; read-out: IC50 value
Experimental: as §1, §2, §3, §4, §5

J82 = assay: MTT test, overall cell growth; format: cell-based, human; details: J82, MTT, 72 hours of incubation; read-out: IC50 value
Experimental: as §1, §2, §3, §4, §5

LoVo = assay: MTT test, overall cell growth; format: cell-based, human; details: 72 hours of incubation
Experimental: as §1, §2, §3, §4, §5

U-373 MG = assay: MTT test, overall cell growth; format: cell-based, human; details: U-373, MTT, 72 hours of incubation
Experimental: as §1, §2, §3, §4, §5

[1] = Maximum Tolerated Dose in healthy mice; format: in vivo; details: single administration in mice, healthy animals, 14 days post-injection
Experimental: The Maximum Tolerated Dose (MTD) of a given drug is defined as the maximum amount of a drug which can be administered acutely (i.e. in one i.p., i.v., s.c. or per os single dose) to healthy animals, i.e. animals not grafted with tumors. The survival times and weights of the animals are recorded up to 14 days post-injection. Five different doses of each drug are used for the determination of the MTD index. When the MTD index is higher than 160 mg/kg (i.p. administration) the drug is usually considered to be non-toxic, and the highest dose administered to tumor-bearing mice is MTD/2=80 mg/kg. Each experimental group was composed of 3 mice for the determination of the MTD index.

SMILES	pIC50 (A549)	pIC50 (HCT-15)	pIC50 (Hs683)	pIC50 (J82)	pIC50 (LoVo)	pIC50 (U-373 MG)	MTD index [1]
CC(=O)OCC12CC3OC4(O)C(OC(C)CC45N=CCS5)OC3CC1CCC1C2CCC2(C)C(C3=CC(=O)OC3)CCC12O (centres unmarked) [Compound E]	5.30 to 6.00	5.30 to 6.00	5.30 to 6.00	< 5.00	5.30 to 6.00	5.30 to 6.00	
CC1CC2(N=CCS2)C2(O)OC3CC4(CO)C(CCC5C4CCC4(C)C(C6=CC(=O)OC6)CCC54O)CC3OC2O1 (centres unmarked) [Compound D]	7.30 to 8.00	7.30 to 8.00	8.30 to 9.00	5.00 to 5.30	8.30 to 9.00	7.30 to 8.00	10 mg/kg
CC1CC2(NC(CC(=O)c3ccccc3)CS2)C2(O)OC3CC4(CO)C(CCC5C4CCC4(C)C(C6=CC(=O)OC6)CCC54O)CC3OC2O1 (single isomer, unassigned) [Compound I]	8.30 to 9.00	7.30 to 8.00	8.30 to 9.00	5.30 to 6.00	7.30 to 8.00	7.30 to 8.00	80 mg/kg
